What was measured:
[1] = Maximum carbon dioxide (CO2) release temperature by DSC; type: physicochemical; settings: after 24 hours in air at 23° C. and 50% RH; heating rate 10° C./minute, nitrogen
Method: A carbon dioxide detector and a Petri dish were placed in an openable desiccator (inner dimension: 370 mm × 260 mm × 272 mm). Subsequently, the cyclic polyamine compound (5 mmol) was added to the Petri dish in the desiccator and the door was immediately closed to leave the cyclic polyamine compound to stand in the desiccator in an air environment at 23° C. and 50% RH for 24 hours. The initial concentration of carbon dioxide was adjusted to about 400 ppm.
Then the cyclic polyamine compound was taken out of the desiccator to give a cyclic polyamine compound with carbon dioxide absorbed. The maximum carbon dioxide release temperature of the cyclic polyamine compound with carbon dioxide absorbed was measured by subjecting the cyclic polyamine compound to DSC as described below. First, differential scanning calorimetry of the cyclic polyamine compound was performed under conditions of a temperature range of 23 to 250° C., a heating rate of 10° C./minute and a nitrogen atmosphere using a differential thermogravimeter (product name DTG-60 made by Shimadzu Corporation). The temperature at which the amount of heat absorbed due to the desorption of carbon dioxide was the maximum was calculated from the DSC curve obtained, and the temperature was determined as the maximum carbon dioxide release temperature of the cyclic polyamine compound.

[2] = Percentage increase of mass after standing in air (absorption of carbon dioxide); type: physicochemical; settings: air environment at 23° C. and 50% RH for a week
Method: A cyclic polyamine compound, MXDA, was put in a container and left to stand in an air environment at 23° C. and 50% RH for a week. By doing so, MXDA and carbon dioxide in the air were reacted to give a reaction product of MXDA and carbon dioxide (carbonate of MXDA). At that stage, to suppress uneven reaction, the container in which the cyclic polyamine compound was placed was shaken as necessary so as not to leave unreacted MXDA. The water content in the resulting reaction product (carbonate of MXDA) was 0% by mass.
Next, the amount of increase of the mass of MXDA was measured, and the percentage increase of the mass of the cyclic polyamine compound was calculated by the following equation.
Percentage increase of mass of cyclic polyamine compound [% by mass]=100×amount of increase of mass of cyclic polyamine compound (g)/(initial mass of cyclic polyamine compound (g)[…])

maximum carbon dioxide (CO2) release temperature [1]: 135.5 °C | percentage increase of the mass [2]: 24.1 % by mass
SMILES: NCc1cccc(CN)c1 [MXDA, metaxylylenediamine]
